Measurements as given in US11559590B2, “Granzyme B directed imaging and therapy” (The General Hospital Corporation, priority 2016, dated 2023).
Like-named read-outs stand apart in the source and are kept apart here. Values belong to the molecule of their own block, whether it stands above or below them. Non-standard residues stand in square brackets, D forms with d. Residues, ends and D or L forms follow the SMILES beside them. Primed or numbered codes have the meaning given here. No end group written: not given here. *: point of attachment. X1 = O=C(O)CN1CCN(CC(=O)O)CC(Cc2ccc(NC(=S)*)cc2)N(CC(=O)O)CC1; PEG27′ = polyethylene glycol linker of 27 —(OCH2CH2)— units; Biotin = O=C1N[C@H]2[C@H](CS[C@H]2CCCCC(=O)*)N1; NOTA = O=C(O)CN1CCN(CC(=O)O)CCN(CC(=O)*)CC1; βAla = NCCC(=O)O

Experiments:
CT26 cells = test: Binding of ^68Ga-NOTA-GP to CT26 cells with or without pre-incubation with granzyme B; format: cell-based; conditions: 100 μCi/mL, pre-incubated with granzyme B (60 nM) or vehicle, 30 min
Method: CT26 cells were plated in 96 well plates and grown to 70% confluency. ^68Ga-NOTA-GP was diluted to 100 μCi/mL in 1% BSA plus RPMI buffer and either pre-incubated with granzyme B (60 nM) or vehicle prior to addition to wells. The peptide was incubated with cells for 30 min prior to washing and elution with 2M NaOH.

CT26 tumors [1] = test: Ex vivo tumor to blood ratio by gamma counter in CT26 tumor bearing mice; conditions: day 14, 1 h post-injection
Method: After confirming the ^68Ga-NOTA-GP bound to purified granzyme B and specifically accumulated in target cells, the in vivo tumor accumulation was investigated in CT26 tumor bearing mice using the same model used to generate the Western blot data from Example 2 (see FIG. 1). On day 14 post-inoculation, mice were injected with […] of ^68Ga-NOTA-GP and mice were sacrificed at 1 h following injection. Tumors and blood were collected from 7 mice that were treated with combination therapy (ant-PD-1 and CTLA-4). The tumors were grouped based on size as either responders (mass<[…]) or non-responders (mass≥[…]) The amount of radioactive ^68Ga-NOTA-GP in both the tumor and blood were quantified using a gamma counter and the adjusted based on mass and the ratio of injected dose per gram of tumor to blood (TBR) was plotted for tumors in each group.

[2] = Ex vivo bio-distribution at 1 h and 2 h post-injection; format: in vivo, mice; conditions: mouse, tumor, iv, 1 mCi, total radioactivity; for tissue uptake at 1 h: 1 h post-injection; for tissue uptake at 2 h: 2 h post-injection
Method: (§1) Following injection with ˜1 mCi of ^68Ga-NOTA-GP (see Example 1) via tail-vein mice were sacrificed at either one-hour or two-hour time-points. Mouse urine, blood, tumor, and vital organs were sampled, and radioactivity assessed on a gamma-counter.
(§2) Following imaging, mice were sacrificed and tumoral GZB expression quantified by Western blot. […] Tumoral uptake of treated tumors was measured at 1.15% ID/g at 1 h and 1.02% ID/g at 2 h in comparison to 0.70 and 0.55% ID/g in untreated control tumors, as shown in FIG. 7B.

CT26 tumors [3] = test: as above; format: in vivo, mice; conditions: 1 h and 2 h post-injection
Method: as §1, §2

granzyme B [4] = target: T1, granzyme B (Mus musculus, UniProt P04187); test: Binding of ^68Ga-NOTA-GP to purified granzyme B adsorbed to plates vs BSA; parameters: purchased R&D systems; conditions: 1 h binding, bound tracer counted by gamma counter, 6 replicates
T1 sequence (P04187 21-247): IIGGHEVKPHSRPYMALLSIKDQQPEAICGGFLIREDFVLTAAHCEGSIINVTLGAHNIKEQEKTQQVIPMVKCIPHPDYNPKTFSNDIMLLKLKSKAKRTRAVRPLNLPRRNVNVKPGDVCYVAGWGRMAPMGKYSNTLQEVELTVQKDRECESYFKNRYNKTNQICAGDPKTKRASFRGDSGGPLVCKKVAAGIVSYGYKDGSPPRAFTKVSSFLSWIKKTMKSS
Method: Granzyme B was adsorbed to plates and the plates were blocked with non-fat milk. The ^68Ga-NOTA-GP was permitted to bind for 1 h, the wells washed, and bound ^68Ga-NOTA-GP recovered by incubation with 2N NaOH and counted by gamma counter. […] The bars in FIG. 4 represent the mean of 6 replicates±SD.

granzyme B [5] = target: T1, granzyme B; format: in vivo, mice; parameters: from tissue; host or cells: CT26 (BALB/C) and MC38 syngeneic tumours in living mice; granzyme B from infiltrating host lymphocytes
Method: For imaging studies, mice were treated with intraperitoneal injection of either vehicle, 200 μg anti-PD-1 murine therapeutic antibody (αPD1), or both 200 μg αPD1 and 100 μg anti-CTLA-4 murine therapeutic antibody (αCTLA-4) on days 3, 6, and 9 following CT-26 tumor inoculation. 1×10^6 BP cells were diluted 1:1 with Matrigel and injected in the right shoulder of female C57BL/6 mice. Once tumors had reached 3-5 mm in diameter, mice were treated with daily oral gavage of vehicle or dabrafenib prepared in aqueous suspension with 0.5% hydroxypropylmethyl cellulose (HPMC) and 0.2% Tween. One day following initiation of BRAF inhibition, mice were additionally randomized to intraperitoneal injection with 200 μg αPD1 as specified. Mice were sacrificed on specified day either for Western blot and immunohistochemistry alone, or following imaging for correlative analysis. Mice were imaged on a GE Triumph PET/CT. Following CT acquisition, PET images were obtained for 15 min in 2 bed positions. Images were constructed using 3D-OSEM (4 iterations, 16 subsets) and corrected for scatter and randoms. The mean standard uptake value (SUVmean) for each tumor was calculated in a 3D region of interest auto-drawn around the tumor using a 30% isocontour threshold. Region of interests were also calculated for left ventricle, liver lung, muscle, and kidney. Images were post-processed using VivoQuant (InviCRO, Boston, Mass.). On day 14 post-inoculation, mice were injected with ˜37 MBq of purified ^68Ga-NOTA-GP intravenously and imaged at 1 h post-injection. […] The mean TBR of treated mice was calculated at 1.69±0.26, whereas the mean TBR of untreated mice was 0.93±0.11, a significant increase (83%, P<0.05) from untreated to treated mice, as shown in FIG. 11. ^68Ga-NOTA-GP uptake was observed across both treated and untreated tumors.

granzyme B [6] = target: T1, granzyme B; test: Response prediction using granzyme B PET imaging across CT26 and MC38 models; format: in vivo, mice; parameters: from tissue; host or cells: CT26 (BALB/C) and MC38 syngeneic tumours in living mice; granzyme B from infiltrating host lymphocytes; conditions: CT26 and MC38, all therapies
Excerpt: As a measure of the accuracy of granzyme B PET (i.e., GZP PET) imaging-based response prediction across multiple tumor models and therapies described in Examples 9-11, classifications of uptake using TBR thresholds of 1.27 for CT26 tumors and 1.45 for MC38 tumors were utilized. […] This reflects an overall sensitivity and specificity of 93% and 89% respectively for the ability of ^68Ga-GZP PET to predict immunotherapy response.

tumor = conditions: mouse, in vivo
Excerpt: Both peptides were designed to test the effects of additional groups on the pharmacokinetics and tumor to background ratios in mice.

human granzyme B [7] = target: T2, human granzyme B (Homo sapiens, UniProt P10144); test: Immunohistochemistry and immunofluorescence of human melanoma specimens with hGZP; format: binding; conditions: treated responder melanoma samples, IHC and immunofluorescence
T2 construct: from tissue; host or cells: formalin-fixed paraffin-embedded human melanoma biopsy sections
Method: Immunohistochemistry was performed on formalin-fixed paraffin-embedded sections following standard antigen retrieval in citrate buffer. Granzyme B expression was detected with either an anti-Granzyme B antibody (ab5049, Abcam) or a biotinylated and humanized version of GZP (hGZP, see Example 1A). Bound antibody was detected with either HRP-conjugated goat anti-rabbit antibody and reacted with DAB substrate for IHC staining or AlexaFluor 488 goat anti-rabbit or AlexaFluor 594 goat anti-rabbit antibodies (Life Technologies) for immunofluorescent visualization. Bound peptide was detected with either HRP-conjugated streptavidin (Abcam) followed by reaction with DAB substrate or Oregon green conjugated neutravidin (Life Technologies). […] Fluorescence quantification was performed using ImageJ software (National Institutes of Health, Bethesda, Md.).
(§3) A cohort of 9 human melanoma biopsy samples obtained from patients treated with anti-PD-1 checkpoint inhibitors (n=6 nivolumab and n=3 pembrolizumab), which were retrospectively correlated with response based on modified RECIST criteria. […] To quantify the degree and magnitude of difference between treated responders and nonresponders, quantitative fluorescent microscopy was performed. […]

[8] = target: Granzyme B (purified, R&D Systems); test: in vitro granzyme B enzyme activity inhibition (cleavage of BOC-Ala-Ala-Asp-SBZL, absorbance at 405 nm)
human granzyme B [9] = target: T3, human granzyme B (human, UniProt P10144 21-247); test: immunohistochemistry and immunofluorescence on human melanoma sections, compared with anti-granzyme B antibody
T3 construct: Endogenous protein in tissue sections, not purified; also called granzyme B in human melanoma tissue
Method: Immunohistochemistry was performed on formalin-fixed paraffin-embedded sections following standard antigen retrieval in citrate buffer. Granzyme B expression was detected with either an anti-Granzyme B antibody (ab5049, Abcam) or a biotinylated and humanized version of GZP (hGZP, see Example 1A). Bound antibody was detected with either HRP-conjugated goat anti-rabbit antibody and reacted with DAB substrate for IHC staining or AlexaFluor 488 goat anti-rabbit or AlexaFluor 594 goat anti-rabbit antibodies (Life Technologies) for immunofluorescent visualization.
Bound peptide was detected with either HRP-conjugated streptavidin (Abcam) followed by reaction with DAB substrate or Oregon green conjugated neutravidin (Life Technologies). […] Fluorescence quantification was performed using ImageJ software (National Institutes of Health, Bethesda, Md.).
as §3

T2 sequence (P10144 21-247): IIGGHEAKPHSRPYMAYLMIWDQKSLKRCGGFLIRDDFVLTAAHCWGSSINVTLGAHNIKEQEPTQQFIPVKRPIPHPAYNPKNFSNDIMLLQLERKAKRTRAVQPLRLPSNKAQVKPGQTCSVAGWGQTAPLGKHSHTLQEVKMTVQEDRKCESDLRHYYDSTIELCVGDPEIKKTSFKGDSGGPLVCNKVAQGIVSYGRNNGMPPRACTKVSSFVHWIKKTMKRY
T3 sequence (P10144 21-247 limits assumed): as the sequence (P10144 21-247) above

tumor to blood ratio (TBR), injected dose per gram, responders (CT26 tumors [1]; combination therapy (anti-PD-1 and CTLA-4) treated mice, responders (mass<0.8 mg)): 6.06-13.74
tumor to blood ratio (TBR), injected dose per gram, non-responders (CT26 tumors [1]; combination therapy treated mice, non-responders (mass≥0.8 mg)): 0.95-2.48
tissue uptake at 1 h ([2]; treated tumors, read-out: tumoral uptake, treated tumors, 1 h): 1.15 %ID/g
tissue uptake at 2 h ([2]; treated tumors, read-out: tumoral uptake, treated tumors, 2 h): 1.02 %ID/g
tissue uptake at 1 h ([2]; untreated control tumors, read-out: tumoral uptake, untreated control tumors, 1 h): 0.7 %ID/g
tissue uptake at 2 h ([2]; untreated control tumors, read-out: tumoral uptake, untreated control tumors, 2 h): 0.55 %ID/g
clearance (CT26 tumors [3]): rapid renal clearance
increase of mean TBR from untreated to treated mice (granzyme B [5]; mouse, in vivo): 83%
mean TBR (tumor to left ventricle) by PET, treated mice (granzyme B [5]; mouse, in vivo): 1.69±0.26
mean TBR (tumor to left ventricle) by PET, untreated mice (granzyme B [5]; mouse, in vivo): 0.93±0.11
overall sensitivity to predict immunotherapy response (granzyme B [6]; 25 of 27 responding mice high-uptake): 93%
overall specificity to predict immunotherapy response (granzyme B [6]; 34 of 38 non-responding mice low-uptake): 89%
Molecule: CCC(C)C(NC(=O)CNC(=O)CNC(=O)CNC(=S)Nc1ccc(CC2CN(CC(=O)O)CCN(CC(=O)O)CCN2CC(=O)O)cc1)C(=O)NC(CCC(=O)O)C(=O)NC(Cc1ccccc1)C(=O)NC(C=O)CC(=O)O (stereo not drawn) [^68Ga-NOTA-GP, metal not drawn] (X1-GGGIEFD-aldehyde; configuration not given here)
binding/uptake in CT26 cells (CT26 cells): binds granzyme B and is taken up specifically by cancer cells
binding to granzyme B compared to control protein (BSA) (granzyme B [4]): significantly (P<0.05) higher binding to granzyme B than to the control protein (BSA)
correlation of TBR with tumoral GZB expression (Western blot) (granzyme B [5]; P<0.001): significant correlation between uptake and GZB expression

Molecule: NOTA-beta A-G-G-G-T-E-A-A-A-A-S-S-C-F-I-E-F-D-CHO ({NOTA}-[βAla]GGGTEAAAASSCFIEFD-aldehyde; SMILES CC[C@H](C)[C@H](NC(=O)[C@H](Cc1ccccc1)NC(=O)[C@H](CS)NC(=O)[C@H](CO)NC(=O)[C@H](CO)NC(=O)[C@H](C)NC(=O)[C@H](C)NC(=O)[C@H](C)NC(=O)[C@H](C)NC(=O)[C@H](CCC(=O)O)NC(=O)[C@@H](NC(=O)CNC(=O)CNC(=O)CNC(=O)CCNC(=O)CN1CCN(CC(=O)O)CCN(CC(=O)O)CC1)[C@@H](C)O)C(=O)N[C@@H](CCC(=O)O)C(=O)N[C@@H](Cc1ccccc1)C(=O)N[C@H](C=O)CC(=O)O) [GZPSERP]
aggregation and liver uptake (tumor): significant aggregation and high liver uptake
tumor to background ratios (tumor): much lower tumor to background ratios

Molecule: NOTA-beta A-PEG27-G-G-G-I-E-F-D ({NOTA-βAla-PEG27′}-GGGIEFD) [GZPPEG]
tumor uptake kinetics (tumor): almost identical tumor uptake kinetics to NOTA-GP

Molecule: {Biotin-βAla}-GGGIEPD-aldehyde [hGZP]
binding to granzyme B in human tissue compared with anti-granzyme B antibody (human granzyme B [7]): highly specific binding of hGZP to human granzyme B

Ki [8]: 47 nM
Molecule: {NOTA}-[βAla]GGIEFD-aldehyde (also: NOTA complexed with nonradioactive gallium) [NOTA-beta-Ala-Gly-Gly-Ile-Glu-Phe-Asp-CHO (nonradioactive gallium-labeled)]

binding result (human granzyme B [9]): binds
B1: Biotin-beta-Ala-Gly-Gly-Gly-Ile-Glu-Pro-Asp-CHO (peptide)
peptide: Biotin-[βAla]GGGIEPD-aldehyde
SMILES: CC[C@H](C)[C@H](NC(=O)CNC(=O)CNC(=O)CNC(=O)CCNC(=O)CCCC[C@@H]1SC[C@@H]2NC(=O)N[C@@H]21)C(=O)N[C@@H](CCC(=O)O)C(=O)N1CCC[C@H]1C(=O)N[C@H](C=O)CC(=O)O
notes: also called hGZP; biotinylated human granzyme B peptide
